By IC50 is commonly meant the concentration that inhibits the measured activity by half.

Serine/threonine-protein kinase B-raf, sequence (P15056 2-766 V600E limits assumed): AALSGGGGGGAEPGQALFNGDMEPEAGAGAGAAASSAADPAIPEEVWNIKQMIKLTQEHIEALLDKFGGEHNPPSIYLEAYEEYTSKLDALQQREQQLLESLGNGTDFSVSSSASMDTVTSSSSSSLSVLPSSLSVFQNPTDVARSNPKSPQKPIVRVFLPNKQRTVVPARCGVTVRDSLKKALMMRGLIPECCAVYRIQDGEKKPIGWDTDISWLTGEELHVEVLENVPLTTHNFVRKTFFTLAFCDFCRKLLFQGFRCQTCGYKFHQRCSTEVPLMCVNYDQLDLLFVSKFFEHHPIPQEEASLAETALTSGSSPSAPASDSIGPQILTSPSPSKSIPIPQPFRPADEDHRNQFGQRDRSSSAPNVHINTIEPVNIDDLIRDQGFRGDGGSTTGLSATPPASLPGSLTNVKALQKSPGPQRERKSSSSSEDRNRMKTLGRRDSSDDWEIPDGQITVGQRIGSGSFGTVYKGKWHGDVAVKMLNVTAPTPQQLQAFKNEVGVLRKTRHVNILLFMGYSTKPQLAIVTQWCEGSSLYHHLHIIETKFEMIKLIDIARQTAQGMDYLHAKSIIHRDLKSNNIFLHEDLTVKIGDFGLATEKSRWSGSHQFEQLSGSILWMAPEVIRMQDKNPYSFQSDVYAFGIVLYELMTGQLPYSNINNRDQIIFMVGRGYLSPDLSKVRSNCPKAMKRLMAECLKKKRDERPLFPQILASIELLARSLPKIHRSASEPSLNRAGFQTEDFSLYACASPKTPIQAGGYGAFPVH

This test addresses Serine/threonine-protein kinase B-raf (Homo sapiens, UniProt P15056, V600E). Nature of the test: Inhibition of human BRAF V600E mutant using myelin basic protein as substrate measured after 40 mins in presence of [gamma33P-ATP] by scintillation counting method.
With `O=C(Nc1cccc(-n2cc(-c3ccncc3)c(-c3cc(O)cc(Cl)c3)n2)c1)Nc1cccc(C(F)(F)F)c1`, the IC50 came out at 30 nM.

On to `O=C(Nc1cccc(-n2cc(-c3ccncc3)c(-c3cc(O)cc(Cl)c3)n2)c1)Nc1ccc(Cl)c(C(F)(F)F)c1`, for which the IC50 amounted to 7 nM.

Consider `COc1cc(Cl)cc(-c2nn(-c3cccc(NC(=O)c4cc(C(F)(F)F)cc(C(F)(F)F)c4)c3)cc2-c2ccncc2)c1`, for which the IC50 is 7410 nM.

`O=C(Nc1ccccc1)Nc1cccc(-n2cc(-c3ccncc3)c(-c3cc(O)cc(Cl)c3)n2)c1`: the IC50 amounted to 919 nM.

With `O=C(Nc1cccc(-n2cc(-c3ccncc3)c(-c3cc(O)cc(Cl)c3)n2)c1)Nc1cc(C(F)(F)F)cc(C(F)(F)F)c1`, the concentration for half-maximal inhibition (IC50) worked out at 2110 nM.

In the case of `O=C(Nc1cccc(-n2cc(-c3ccncc3)c(-c3cc(O)cc(Cl)c3)n2)c1)Nc1ccc(Cl)c(Cl)c1`, the concentration for half-maximal inhibition (IC50) worked out at 45 nM.

Take `COc1cc(Cl)cc(-c2nn(-c3cccc(NC(=O)c4ccccc4)c3)cc2-c2ccncc2)c1`: the half-maximal inhibitory concentration (IC50) was 3690 nM.

Turning to `O=C(Nc1cccc(-n2cc(-c3ccncc3)c(-c3cc(O)cc(Cl)c3)n2)c1)c1ccc(Cl)c(Cl)c1`, the concentration for half-maximal inhibition (IC50) amounted to 47 nM.

Turning to `COc1cc(Cl)cc(-c2nn(-c3cccc(NC(=O)c4ccc(N5CCOCC5)c(C(F)(F)F)c4)c3)cc2-c2ccncc2)c1`, the IC50 amounted to 348 nM.

In the case of `COc1cc(Cl)cc(-c2nn(-c3cccc(NC(=O)c4ccc(Cl)c(Cl)c4)c3)cc2-c2ccncc2)c1`, the IC50 amounted to 87200 nM.

On to `COc1cc(Cl)cc(-c2nn(-c3cccc(NC(=O)Nc4ccc(Cl)c(Cl)c4)c3)cc2-c2ccncc2)c1`, for which the IC50 amounted to 251 nM.

For `O=C(Nc1cccc(-n2cc(-c3ccncc3)c(-c3cc(O)cc(Cl)c3)n2)c1)c1cccc(C(F)(F)F)c1`, the IC50 was 38 nM.

With `O=C(Nc1cccc(-n2cc(-c3ccncc3)c(-c3cc(O)cc(Cl)c3)n2)c1)c1ccccc1`, the IC50 was found to be 26 nM.

As for `COc1cc(Cl)cc(-c2nn(-c3cccc(NC(=O)Nc4cccc(C(F)(F)F)c4)c3)cc2-c2ccncc2)c1`, the IC50 is 475 nM.

Take `COc1cc(Cl)cc(-c2nn(-c3cccc(NC(=O)Nc4ccc(Cl)c(C(F)(F)F)c4)c3)cc2-c2ccncc2)c1`: the half-maximal inhibitory concentration (IC50) is 189 nM.

On to `COc1cc(Cl)cc(-c2nn(-c3cccc(NC(=O)c4cccc(C(F)(F)F)c4)c3)cc2-c2ccncc2)c1`, for which the 50% inhibitory concentration (IC50) came out at 160 nM.

`O=C(Nc1cccc(-n2cc(-c3ccncc3)c(-c3cc(O)cc(Cl)c3)n2)c1)c1ccc(N2CCOCC2)c(C(F)(F)F)c1`: the IC50 came out at 14 nM.

Turning to `COc1cc(Cl)cc(-c2nn(-c3cccc(NC(=O)Nc4ccccc4)c3)cc2-c2ccncc2)c1`, the IC50 amounted to 488 nM.

Consider `O=C(Nc1cccc(-n2cc(-c3ccncc3)c(-c3cc(O)cc(Cl)c3)n2)c1)c1cc(C(F)(F)F)cc(C(F)(F)F)c1`, for which the IC50 amounted to 212 nM.

The values above are taken from ChEMBL document CHEMBL4411323 (Bioorg Med Chem, 2019).
